“And” between values parts separate entries of the source, which are not always exact repeats. Identical values can stand only once. Toxic doses and inconclusive results are not listed. Rule as the data show it: active = T/C of 150% or more; inactive = T/C below 125%.
Test system: L1210 leukemia ip in BDF1 mice, survival T/C
Test: NCI In Vivo Anticancer Drug Screen. Data for tumor model L1210 Leukemia (intraperitoneal) in B6D2F1 (BDF1) mice
Conditions: endpoint: mean survival time, higher = longer survival
Outline: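 Transplantable tumor model; survival measured in treated vs vehicle control mice. Value = treated/control.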

[1] = dose: 50.0 mg/kg/injection, schedule: Q04DX003 (ip), vehicle: saline
[2] = dose: 100.0 mg/kg/injection, schedule: Q04DX003 (ip), vehicle: saline
[3] = dose: 200.0 mg/kg/injection, schedule: Q04DX003 (ip), vehicle: saline
[4] = dose: 50.0 mg/kg/injection, schedule: Q01DX009 (ip), vehicle: saline with Tween-80
[5] = dose: 100.0 mg/kg/injection, schedule: Q01DX009 (ip), vehicle: saline with Tween-80
[6] = dose: 200.0 mg/kg/injection, schedule: Q01DX009 (ip), vehicle: saline with Tween-80
[7] = dose: 100.0 mg/kg/injection, schedule: Q04DX002 (ip), vehicle: Klucel (hydroxypropylcellulose) (HPC)
[8] = dose: 200.0 mg/kg/injection, schedule: Q04DX002 (ip), vehicle: Klucel (hydroxypropylcellulose) (HPC)
[9] = dose: 400.0 mg/kg/injection, schedule: Q04DX002 (ip), vehicle: Klucel (hydroxypropylcellulose) (HPC)
[10] = dose: 100.0 mg/kg/injection, schedule: Q01DX001 (sc), vehicle: steriod suspending solution
[11] = dose: 200.0 mg/kg/injection, schedule: Q01DX001 (sc), vehicle: steriod suspending solution
[12] = dose: 400.0 mg/kg/injection, schedule: Q01DX001 (sc), vehicle: steriod suspending solution
[13] = dose: 100.0 mg/kg/injection, schedule: Q04DX003 (ip), vehicle: saline with Tween-80

Measured: T/C

CCOC(=N)c1cn(C2OC(CO)C(O)C2O)c2ncnc(N)c12 (centres undefined)
inactive: dose: 0.12 mg/kg/injection, schedule: Q01DX009 (ip), vehicle: saline with Tween-80 120 % of control | dose: 0.12 mg/kg/injection, schedule: Q01DX009 (ip), vehicle: saline 109 % of control | dose: 0.18 mg/kg/injection, schedule: Q01DX009 (ip), vehicle: saline with Tween-80 120 % of control | dose: 0.18 mg/kg/injection, schedule: Q01DX009 (ip), vehicle: saline 123 % of control | dose: 0.27 mg/kg/injection, schedule: Q01DX009 (ip), vehicle: saline with Tween-80 117 % of control | dose: 0.27 mg/kg/injection, schedule: Q01DX009 (ip), vehicle: saline 121 % of control | dose: 0.6 mg/kg/injection, schedule: Q01DX009 (ip), vehicle: saline 118 % of control | dose: 0.9 mg/kg/injection, schedule: Q01DX009 (ip), vehicle: saline 112 % of control | dose: 1.3 mg/kg/injection, schedule: Q01DX009 (ip), vehicle: saline 96 % of control

O=c1[nH]c(=O)n(C2OC(CO)C(O)C2O)cc1CCC(F)(F)F (centres undefined)
inactive: dose: 50.0 mg/kg/injection, schedule: Q01DX005 (ip), vehicle: saline 94 % of control | dose: 100.0 mg/kg/injection, schedule: Q01DX005 (ip), vehicle: saline 109 % of control | dose: 200.0 mg/kg/injection, schedule: Q01DX005 (ip), vehicle: saline 98 % of control

C[PH+](c1ccccc1)c1ccccc1.C[PH+](c1ccccc1)c1ccccc1.[Br][Pd][Br]
inactive: [1] 98 % of control | [2] 105 % of control | [3] 100 % of control

Cc1cc(N(C)C)cc(C)c1N=Nc1cc[n+]([O-])cc1
inactive: dose: 12.5 mg/kg/injection, schedule: Q04DX003 (ip), vehicle: saline with Tween-80 98 % of control | dose: 25.0 mg/kg/injection, schedule: Q04DX003 (ip), vehicle: saline with Tween-80 98 % of control | [4] 95 % of control | dose: 50.0 mg/kg/injection, schedule: Q04DX003 (ip), vehicle: saline with Tween-80 100 % of control | [5] 91 % of control | [6] 91 % of control

COc1cc2cccccc-2cc1=O
inactive: dose: 50.0 mg/kg/injection, schedule: Q01DX009 (ip), vehicle: other 104 % of control | dose: 100.0 mg/kg/injection, schedule: Q01DX009 (ip), vehicle: other 89 % of control | dose: 100.0 mg/kg/injection, schedule: Q04DX003 (ip), vehicle: Klucel (hydroxypropylcellulose) (HPC) 103 % of control | dose: 200.0 mg/kg/injection, schedule: Q01DX009 (ip), vehicle: other 101 % of control | dose: 200.0 mg/kg/injection, schedule: Q04DX003 (ip), vehicle: Klucel (hydroxypropylcellulose) (HPC) 97 % of control | dose: 400.0 mg/kg/injection, schedule: Q04DX003 (ip), vehicle: Klucel (hydroxypropylcellulose) (HPC) 103 % of control

C=CCNC(=S)N(Cc1ccccc1)Cc1ccccc1
inactive: [7] 105 % of control | [8] 101 % of control | [9] 94 % of control

CC12CCC3C(CC(=O)C45OC4C(O)CCC35C)C1CCC2=O (centres undefined)
inactive: [10] 114 % of control | [11] 114 % of control | [12] 121 % of control

CCCP(=S)(CC)CC
inactive: [7] 90 % of control | [8] 93 % of control | [9] 90 % of control

Cc1ccc(C(=O)N/N=C/c2ccccc2O)cc1
inactive: [7] 89 % of control | [8] 92 % of control | [9] 105 % of control

CN1CCCC1CCNc1nc(C(Cl)(Cl)Cl)nc2ccc(Cl)cc12 (centres undefined)
inactive: dose: 25.0 mg/kg/injection, schedule: Q01DX009 (ip), vehicle: saline with Tween-80 106 % of control | [4] 96 % of control | [5] 106 % of control | [13] 88 % of control

Nc1nc(N)c(CCCOc2ccccc2)c(-c2ccccc2)n1
inactive: [7] 105 % of control | [8] 101 % of control | [9] 101 % of control

COc1ccc(Cl)cc1NC(=O)Oc1ccc(C(C)=O)cc1
inactive: dose: 100.0 mg/kg/injection, schedule: Q01DX001 (ip), vehicle: saline with Tween-80 100 % of control | [5] 97 % of control and 104 % of control | dose: 100.0 mg/kg/injection, schedule: Q04DX002 (ip), vehicle: saline with Tween-80 121 % of control | [13] 90 % of control | dose: 200.0 mg/kg/injection, schedule: Q01DX001 (ip), vehicle: saline with Tween-80 100 % of control | [6] 96 % of control | dose: 200.0 mg/kg/injection, schedule: Q04DX002 (ip), vehicle: saline with Tween-80 99 % of control | dose: 200.0 mg/kg/injection, schedule: Q04DX003 (ip), vehicle: saline with Tween-80 87 % of control | dose: 400.0 mg/kg/injection, schedule: Q01DX001 (ip), vehicle: saline with Tween-80 93 % of control | dose: 400.0 mg/kg/injection, schedule: Q01DX009 (ip), vehicle: saline with Tween-80 100 % of control and 86 % of control | dose: 400.0 mg/kg/injection, schedule: Q04DX002 (ip), vehicle: saline with Tween-80 99 % of control | dose: 400.0 mg/kg/injection, schedule: Q04DX003 (ip), vehicle: saline with Tween-80 99 % of control

Sc1ccccc1.[Pb]
inactive: dose: 25.0 mg/kg/injection, schedule: Q01DX009 (ip), vehicle: Klucel (hydroxypropylcellulose) (HPC) 98 % of control | dose: 50.0 mg/kg/injection, schedule: Q01DX009 (ip), vehicle: Klucel (hydroxypropylcellulose) (HPC) 101 % of control | dose: 100.0 mg/kg/injection, schedule: Q01DX009 (ip), vehicle: Klucel (hydroxypropylcellulose) (HPC) 92 % of control and 87 % of control

CC(=O)O[C@H]1CC[C@@]2(C)C(=CC[C@H]3[C@@H]4C[C@@H](N5CC5)[C@H](C(C)=O)[C@@]4(C)CC[C@@H]32)C1
inactive: dose: 50.0 mg/kg/injection, schedule: Q01DX001 (sc), vehicle: steriod suspending solution 100 % of control | [10] 102 % of control | [11] 107 % of control | [12] 117 % of control

CC(=[N-])CC(C)=O.CC(=[N-])CC(C)=O.[Ni+2]
inactive: dose: 3.0 mg/kg/injection, schedule: Q01DX009 (ip), vehicle: Klucel (hydroxypropylcellulose) (HPC) 90 % of control | dose: 3.12 mg/kg/injection, schedule: Q01DX001 (ip), vehicle: Klucel (hydroxypropylcellulose) (HPC) 97 % of control | dose: 3.12 mg/kg/injection, schedule: Q04DX003 (ip), vehicle: Klucel (hydroxypropylcellulose) (HPC) 98 % of control | dose: 3.13 mg/kg/injection, schedule: Q01DX009 (ip), vehicle: Klucel (hydroxypropylcellulose) (HPC) 97 % of control | dose: 6.0 mg/kg/injection, schedule: Q01DX009 (ip), vehicle: Klucel (hydroxypropylcellulose) (HPC) 95 % of control | dose: 6.25 mg/kg/injection, schedule: Q01DX001 (ip), vehicle: Klucel (hydroxypropylcellulose) (HPC) 100 % of control | dose: 6.25 mg/kg/injection, schedule: Q01DX009 (ip), vehicle: Klucel (hydroxypropylcellulose) (HPC) 97 % of control | dose: 6.25 mg/kg/injection, schedule: Q04DX003 (ip), vehicle: Klucel (hydroxypropylcellulose) (HPC) 97 % of control and 106 % of control | dose: 12.0 mg/kg/injection, schedule: Q01DX009 (ip), vehicle: Klucel (hydroxypropylcellulose) (HPC) 96 % of control | dose: 12.5 mg/kg/injection, schedule: Q01DX001 (ip), vehicle: Klucel (hydroxypropylcellulose) (HPC) 105 % of control | dose: 12.5 mg/kg/injection, schedule: Q01DX009 (ip), vehicle: Klucel (hydroxypropylcellulose) (HPC) 98 % of control | dose: 12.5 mg/kg/injection, schedule: Q04DX003 (ip), vehicle: Klucel (hydroxypropylcellulose) (HPC) 102 % of control and 103 % of control | dose: 25.0 mg/kg/injection, schedule: Q01DX001 (ip), vehicle: Klucel (hydroxypropylcellulose) (HPC) 100 % of control

CC(=O)NN(C)C(C)=O
inactive: dose: 12.5 mg/kg/injection, schedule: Q04DX003 (ip), vehicle: saline 110 % of control | dose: 25.0 mg/kg/injection, schedule: Q04DX003 (ip), vehicle: saline 120 % of control | [1] 112 % of control | [2] 101 % of control | dose: 130.0 mg/kg/injection, schedule: Q04DX003 (ip), vehicle: saline 105 % of control | [3] 96 % of control and 120 % of control | dose: 300.0 mg/kg/injection, schedule: Q04DX003 (ip), vehicle: saline 100 % of control | dose: 400.0 mg/kg/injection, schedule: Q04DX003 (ip), vehicle: saline 106 % of control

C1COC2(OC1)OCCCO2
inactive: [7] 108 % of control | [8] 105 % of control | [9] 105 % of control

— PubChem BioAssay AID248 (DTP/NCI, 2004)
